From patent publication US20230391770A1, “METTL3 INHIBITORY COMPOUNDS” (Storm Therapeutics Limited, priority 2020, published 2023)

Biological target: METTL3/14 (Homo sapiens (Human), UniProt Q86U44)
Experiment: METTL3/14 methyltransferase biochemical assay (RapidFire mass spectrometry, METTL3_14 RFMS)
Settings: not given
Procedure: The enzymatic assay was established to determine IC50 values for inhibition of RNA methyltransferase activity. The enzyme used was full-length his-tagged METTL3 co-expressed with full length FLAG-tagged METTL14 in a baculovirus expression system. […] The reaction was incubated for further 60 minutes at room temperature, and then quenched by the addition of 40 μL 7.5% TCA with two internal product standards (D4-SAH and ^13C10-SAH). After termination, plates were sealed, centrifuged and stored at 4° C. until analysis. […] RNA methyltransferase activity was measured label free using the RapidFireTM mass spectrometry (RF/MS) platform. Stopped and stable assay plates were analyzed on the Agilent RF300 integrated autosampler/solid-phase extraction (SPE) system coupled to an ABSciex 4000 mass spectrometer for the generation of the product S-adenosyl homocysteine (SAH) and normalized to the ratio of signal of the two internal product standards, respectively. Solvent A was water containing 0.1% (v/v) TCA. Solvent B was acetonitrile/0.1% ammonium acetate (8:2, v/v).

METTL3/14, sequence (Q86U44 whole entry): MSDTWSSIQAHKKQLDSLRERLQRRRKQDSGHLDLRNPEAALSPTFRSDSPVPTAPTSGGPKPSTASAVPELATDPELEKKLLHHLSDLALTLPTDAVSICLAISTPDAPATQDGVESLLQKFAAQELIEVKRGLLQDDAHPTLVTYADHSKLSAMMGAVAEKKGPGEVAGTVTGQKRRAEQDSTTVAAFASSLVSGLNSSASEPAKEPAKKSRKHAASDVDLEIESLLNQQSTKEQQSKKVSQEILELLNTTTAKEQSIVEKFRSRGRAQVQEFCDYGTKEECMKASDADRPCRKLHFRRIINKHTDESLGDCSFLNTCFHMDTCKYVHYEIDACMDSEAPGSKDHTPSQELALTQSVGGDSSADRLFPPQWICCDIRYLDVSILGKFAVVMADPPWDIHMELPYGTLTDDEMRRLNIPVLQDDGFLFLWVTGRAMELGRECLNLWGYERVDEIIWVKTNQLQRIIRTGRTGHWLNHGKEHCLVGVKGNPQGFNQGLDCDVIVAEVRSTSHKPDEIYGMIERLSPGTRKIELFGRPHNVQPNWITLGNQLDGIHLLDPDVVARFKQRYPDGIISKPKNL
METTL3/14, sequence (Q9HCE5 whole entry partner): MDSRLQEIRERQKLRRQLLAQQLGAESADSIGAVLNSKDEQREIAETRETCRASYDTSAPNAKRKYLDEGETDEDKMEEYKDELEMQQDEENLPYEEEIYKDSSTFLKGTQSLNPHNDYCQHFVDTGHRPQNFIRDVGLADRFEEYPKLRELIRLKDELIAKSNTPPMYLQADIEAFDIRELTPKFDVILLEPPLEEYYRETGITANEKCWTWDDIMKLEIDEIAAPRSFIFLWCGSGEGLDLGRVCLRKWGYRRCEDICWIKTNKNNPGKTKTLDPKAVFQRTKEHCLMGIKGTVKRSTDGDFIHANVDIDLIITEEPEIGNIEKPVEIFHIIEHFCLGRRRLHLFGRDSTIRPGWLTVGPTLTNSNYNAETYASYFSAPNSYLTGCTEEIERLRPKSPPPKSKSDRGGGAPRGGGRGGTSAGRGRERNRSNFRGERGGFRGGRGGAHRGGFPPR

SMILES	IC50 [nM]
Cc1nc(C(=O)NCc2cn3cc(CNCC4CCCCC4)ccc3n2)cc(=O)n1C [Example 2, N-[(6-{[(cyclohexylmethyl)amino]methyl}imidazo[1,2-a]pyridin-2-yl)methyl]-1,2-dimethyl-6-oxo-1,6-dihydropyrimidine-4-carboxamide]	719
Cn1ccc2cc(C(=O)NCc3cn4cc(CNCC5CCC5)ccc4n3)cnc21 [Example 16, N-[(6-{[(cyclobutylmethyl)amino]methyl}imidazo[1,2-a]pyridin-2-yl)methyl]-1-methyl-1H-pyrrolo[2,3-b]pyridine-5-carboxamide]	1600
O=C(NCc1cn2cc(CNCC3CCCCC3)ccc2n1)c1cnc2ccccc2n1 [Example 6, N-[(6-{[(cyclohexylmethyl)amino]methyl}imidazo[1,2-a]pyridin-2-yl)methyl]quinoxaline-2-carboxamide]	151
COc1cnc(C#N)c(-c2cn(Cc3cn4cc(CN5CCC6(CCC6)C5)ccc4n3)nn2)c1 [Example 40, 3-(1-{[6-({6-azaspiro[3.4]octan-6-yl}methyl)imidazo[1,2-a]pyridin-2-yl]methyl}-1H-1,2,3-triazol-4-yl)-5-methoxypyridine-2-carbonitrile]	76
O=C(NCc1cn2cc(CNCC3CC(F)(F)C3)ccc2n1)c1cnc2[nH]ccc2c1 [Example 15, N-{[6-({[(3,3-difluorocyclobutyl)methyl]amino}methyl)imidazo[1,2-a]pyridin-2-yl]methyl}-1H-pyrrolo[2,3-b]pyridine-5-carboxamide]	27.3
O=C(NCc1cn2cc(CNCC3CCC3)ccc2n1)c1cnc2[nH]ccc2c1 [Example 14, N-[(6-{[(cyclobutylmethyl)amino]methyl}imidazo[1,2-a]pyridin-2-yl)methyl]-1H-pyrrolo[2,3-b]pyridine-5-carboxamide]	14.5
c1ccc2c(-c3cn(Cc4cn5cc(CN(CC6CCC6)CC6CCC6)ccc5n4)nn3)cncc2c1 [Example 32, bis(cyclobutylmethyl)[(2-{[4-(isoquinolin-4-yl)-1H-1,2,3-triazol-1-yl]methyl}imidazo[1,2-a]pyridin-6-yl)methyl]amine]	1260
O=C(NCc1cn2cc(CNCC3CCC3)ccc2n1)c1cccn2cncc12 [Example 10, N-[(6-{[(cyclobutylmethyl)amino]methyl}imidazo[1,2-a]pyridin-2-yl)methyl]imidazo[1,5-a]pyridine-8-carboxamide]	36.5
Cc1ncc2c(-c3cn(Cc4cn5cc(CNCC67CC(F)(C6)C7)ccc5n4)nn3)cccn12 [Example 36, ({3-fluorobicyclo[1.1.1]pentan-1-yl}methyl)({2-[(4-{3-methylimidazo[1,5-a]pyridin-8-yl}-1H-1,2,3-triazol-1-yl)methyl]imidazo[1,2-a]pyridin-6-yl}methyl)amine]	105
O=C(NCc1cn2cc(CNCC3CCC3)ccc2n1)c1cccc2cncn12 [Example 11, N-[(6-{[(cyclobutylmethyl)amino]methyl}imidazo[1,2-a]pyridin-2-yl)methyl]imidazo[1,5-a]pyridine-5-carboxamide]	104
O=C(NCc1cn2cc(CNCC3CCCCC3)ccc2n1)c1ccnc2[nH]ncc12 [Example 7, N-[(6-{[(cyclohexylmethyl)amino]methyl}imidazo[1,2-a]pyridin-2-yl)methyl]-1H-pyrazolo[3,4-b]pyridine-4-carboxamide]	1400
COc1cncc(C(=O)NCc2cn3cc(CNCC4CCC4)ccc3n2)c1 [Example 46, N-[(6-{[(cyclobutylmethyl)amino]methyl}imidazo[1,2-a]pyridin-2-yl)methyl]-5-methoxypyridine-3-carboxamide]	74
O=C(NCc1cn2cc(CNCC3CCC3)ccc2n1)c1cnc2[nH]ccc2n1 [Example 18, N-[(6-{[(cyclobutylmethyl)amino]methyl}imidazo[1,2-a]pyridin-2-yl)methyl]-5H-pyrrolo[2,3-b]pyrazine-2-carboxamide]	14.1
COc1cnc(C(N)=O)c(-c2cn(Cc3cn4cc(CNCC56CC(F)(C5)C6)ccc4n3)nn2)c1 [Example 49, 3-{1-[(6-{[({3-fluorobicyclo[1.1.1]pentan-1-yl}methyl)amino]methyl}imidazo[1,2-a]pyridin-2-yl)methyl]-1H-1,2,3-triazol-4-yl}-5-methoxypyridine-2-carboxamide]	85
COc1cnc(C#N)c(-c2cn(Cc3cn4cc(CNCC5CCC5)ccc4n3)nn2)c1 [Example 38, 3-{1-[(6-{[(cyclobutylmethyl)amino]methyl}imidazo[1,2-a]pyridin-2-yl)methyl]-1H-1,2,3-triazol-4-yl}-5-methoxypyridine-2-carbonitrile]	57
O=C(NCc1cn2cc(CNCC3CCC3)ccc2n1)c1cnc2[nH]cnc2c1 [Example 13, N-[(6-{[(cyclobutylmethyl)amino]methyl}imidazo[1,2-a]pyridin-2-yl)methyl]-3H-imidazo[4,5-b]pyridine-6-carboxamide]	1070
O=C(NCc1cn2cc(CNCC3CCC3)ccc2n1)c1ccc2[nH]ccc2c1 [Example 17, N-[(6-{[(cyclobutylmethyl)amino]methyl}imidazo[1,2-a]pyridin-2-yl)methyl]-1H-indole-5-carboxamide]	3820
N#Cc1ncc(F)cc1-c1cn(Cc2cn3cc(CN4CCC5(CCC5)C4)ccc3n2)nn1 [Example 42, 3-(1-{[6-({6-azaspiro[3.4]octan-6-yl}methyl)imidazo[1,2-a]pyridin-2-yl]methyl}-1H-1,2,3-triazol-4-yl)-5-fluoropyridine-2-carbonitrile]	1180
Clc1cc(-c2cn(Cc3cn4cc(CNCC5CCC5)ccc4n3)nn2)c2cncn2c1 [Example 24, ({2-[(4-{6-chloroimidazo[1,5-a]pyridin-8-yl}-1H-1,2,3-triazol-1-yl)methyl]imidazo[1,2-a]pyridin-6-yl}methyl)(cyclobutylmethyl)amine]	6.1
N#Cc1ncc(F)cc1-c1cn(Cc2cn3cc(CNCC45CC(F)(C4)C5)ccc3n2)nn1 [Example 43, 5-fluoro-3-{1-[(6-{[({3-fluorobicyclo[1.1.1]pentan-1-yl}methyl)amino]methyl}imidazo[1,2-a]pyridin-2-yl)methyl]-1H-1,2,3-triazol-4-yl}pyridine-2-carbonitrile]	235
COc1cnc(C#N)c(-c2cn(Cc3cn4cc(CNCC56CC(C5)C6)ccc4n3)nn2)c1 [Example 37, 3-{1-[(6-{[({bicyclo[1.1.1]pentan-1-yl}methyl)amino]methyl}imidazo[1,2-a]pyridin-2-yl)methyl]-1H-1,2,3-triazol-4-yl}-5-methoxypyridine-2-carbonitrile]	11.2
c1cc2cc(-c3cn(Cc4cn5cc(CNCC6CCC6)ccc5n4)cn3)cnc2[nH]1 [Example 34, (cyclobutylmethyl)({2-[(4-{1H-pyrrolo[2,3-b]pyridin-5-yl}-1H-imidazol-1-yl)methyl]imidazo[1,2-a]pyridin-6-yl}methyl)amine]	9.34

Same assay, conditions: inhibition of RNA methyltransferase activity; 5 nM METTL3/14, 0.2 μM RNA substrate, 0.5 μM SAM; lower limit of the assay IC50=5 nM

SMILES	IC50 [nM]
O=C(NCc1cn2cc(CNCC3CCCCC3)ccc2n1)c1cnc2ccccc2c1 [Example 8, N-[(6-{[(cyclohexylmethyl)amino]methyl}imidazo[1,2-a]pyridin-2-yl)methyl]quinoline-3-carboxamide]	1190
Cc1ccc2nc(CNC(=O)c3nccc4[nH]ncc34)cn2c1 [Reference Example 1, N-({6-methylimidazo[1,2-a]pyridin-2-yl}methyl)-1H-pyrazolo[4,3-c]pyridine-4-carboxamide]	5340

Tested on: Caov-3 cells
Experiment: Caov3 CTG proliferation assay (CellTiter-Glo)
Assay type: cell-based
Settings: Homo sapiens, 120 hours treatment, 30 μM top concentration
Procedure: Cell treatment and cell growth assessment: 18 hours post-seeding in white 384-Viewplate (6007480, PerkinElmer) at 1500 cells/well, Caov3 cells were treated for 120 hours with compounds inhibiting the METTL3/14 activity (10 serial semi-log dilutions, 30 μM as top concentration). Upon treatment, Coav-3 cells were incubated for 10 min at RT with the CellTiter-Glo reagent (G7571, Promega). Measurement of the luminescence signal was performed on a microplate reader (Ensight, PerkinElmer).

SMILES	IC50 [nM]
O=C(NCc1cn2cc(CNCC3CCC3)ccc2n1)c1cnc2[nH]ccc2n1 [Example 18, N-[(6-{[(cyclobutylmethyl)amino]methyl}imidazo[1,2-a]pyridin-2-yl)methyl]-5H-pyrrolo[2,3-b]pyrazine-2-carboxamide]	2790
Clc1cc(-c2cn(Cc3cn4cc(CNCC5CCC5)ccc4n3)nn2)c2cncn2c1 [Example 24, ({2-[(4-{6-chloroimidazo[1,5-a]pyridin-8-yl}-1H-1,2,3-triazol-1-yl)methyl]imidazo[1,2-a]pyridin-6-yl}methyl)(cyclobutylmethyl)amine]	343
c1cc2cc(-c3cn(Cc4cn5cc(CNCC6CCC6)ccc5n4)cn3)cnc2[nH]1 [Example 34, (cyclobutylmethyl)({2-[(4-{1H-pyrrolo[2,3-b]pyridin-5-yl}-1H-imidazol-1-yl)methyl]imidazo[1,2-a]pyridin-6-yl}methyl)amine]	1280
